Holding throughout (assay type): functional
Test [1] concerns Rattus norvegicus. In words: Dose causing 50% inhibition of edema by carrageenan paw edema assay. (Carrageenan injected into the paw causes an acute inflammation.)
The species entered for test [2] is Rattus norvegicus. In words: Dose at which 50% of the rats had a positive gastrointestinal irritation / ulceration on a quantal all-or-none basis.
Test [3] is described as follows: Ratio of acute ulcerogenesis UD50/Randall-Selitto ED50.
The nature of test [4]: Ratio of carrageenan paw edema ED50/Randall-Sellitto ED50.
Test [5] is filed under the species Rattus norvegicus. The test is described as follows: Dose causing an analgesic effect in 50% of rats (Randall-Selitto assay).
Test [6] relates to Rattus norvegicus. In words: Dose causing 50% inhibition of edema by carrageenan paw edema assay.
Test [7] is filed under the species Rattus norvegicus. In words: Dose at which 50% of the rats had a positive gastrointestinal irritation / ulceration on a quantal all-or-none basis.
Test [8] is filed under the species Mus musculus. The test is described as follows: Dose causing 50% inhibition of writhing in mouse (PBQ writhing test). Background: Writhing tests count abdominal constrictions after an irritant is injected.
Test [9] relates to Rattus norvegicus. In words: Percentage analgesic effect of rats at 10 mg/kg (Randall-Selitto assay).
Test [10] relates to Mus musculus. The test is described as follows: Percentage inhibition of writhing in mouse at 30 mg/kg (PBQ writhing test).
In test [11] the test system is Mus musculus. The test is described as follows: Percentage inhibition of writhing in mouse at 25 mg/kg (PBQ writhing test).
Where [12] appears, read: Rattus norvegicus, read-out: ED50.

Some results are limits rather than exact numbers.

`CCc1cccc2c3c([nH]c12)C(CC)(CC(=O)O)OCC3` (stereo not drawn) [ETODOLAC]: the ED50 was 23 mg/kg in the test on Rattus norvegicus [1] and 4.5 mg/kg in the test listed under Rattus norvegicus [5] (setting [12]). The UD50 in the test filed under Rattus norvegicus [2] was 58 mg/kg. For the same molecule, the Safety index in test [3] was 13. The Ratio in test [4] came out at 5.1.
`CN1C(C(=O)Nc2ccccn2)=C(O)c2ccccc2S1(=O)=O` [PIROXICAM]: the ED50 turned out to be 1.3 mg/kg in the test with Rattus norvegicus [6]; 3.4 mg/kg in the test listed under Mus musculus [8] (Mus musculus, read-out: ED50); 0.35 mg/kg in the test listed under Rattus norvegicus [5] (setting [12]). The molecule also displayed a UD50 in the test filed under Rattus norvegicus [7] of 6 mg/kg. Further, the Safety index in test [3] came to 17. Further, the Ratio in test [4] came to 3.7.
`CCC1(CC(=O)O)OCC(Cc2ccccc2)c2c1[nH]c1ccccc21` (stereo in doubt): in test [3], the Safety index is over 35000. Also, the Ratio in test [4] was 33000.
As for `CC(C)Cc1ccc(C(C)C(=O)O)cc1` (stereo not drawn) [IBUPROFEN], the median effective dose (ED50) in the test on Rattus norvegicus [6] came to 21 mg/kg; in the test filed under Mus musculus [8] (Mus musculus, read-out: ED50) it was 32.4 mg/kg; in the test filed under Rattus norvegicus [5] (setting [12]), 64.5 mg/kg. The molecule further gave a UD50 in the test listed under Rattus norvegicus [7] of 150 mg/kg. The Safety index in [3] worked out at 2.3. Also, in test [4], the Ratio was 0.3.
Turning to `CCC1(CC(=O)O)OCC(Cc2ccccc2)c2c1[nH]c1ccccc21` (single isomer, unassigned; (+)) [PEMEDOLAC], the ED50 in the test listed under Mus musculus [8] is 1.8 mg/kg; in the test filed under Rattus norvegicus [5] it was 0.04 mg/kg.
For `CCC1(CC(=O)O)OCC(Cc2ccccc2)c2c1[nH]c1ccccc21` (stereo in doubt) [PEMEDOLAC], the ED50 is about 100 mg/kg with Rattus norvegicus [1]; 2 mg/kg in the test listed under Mus musculus [8] (Mus musculus, read-out: ED50); 0.003 mg/kg in the test listed under Rattus norvegicus [5]. Further, in the test filed under Rattus norvegicus [2], the UD50 was found to be 107 mg/kg.
`CCC1(CC(=O)O)OCC(Cc2ccccc2)c2c1[nH]c1ccccc21` (single isomer, unassigned; (-)) [PEMEDOLAC] displayed an Effect with Rattus norvegicus [9] of 40%. The molecule further displayed an inhibition in vivo at 30 mg/kg in the test on Mus musculus [10] of 15%.
The molecule `CC[C@@]1(CC(=O)O)OC[C@@H](Cc2ccccc2)c2c1[nH]c1ccccc21` registered an inhibition in vivo at 25 mg/kg with Mus musculus [11] of 19%.

In general, ED50 refers to the midpoint of the dose-response relation. As usually defined, the inhibition in vivo is the drop in the measured response relative to a control, in per cent. The low end stands for a response near the control, the high end for a response far below the control.

(Values after ChEMBL document CHEMBL1124138, “Synthesis and analgesic activity of pemedolac (cis-1-ethyl-1,3,4,9-tetrahydro-4-(phenylmethyl)pyrano[3,4-b]ind ole-1- acetic acid)” (1988).)
